Article PMC12732581, “Molecular and System-Level Characterization of MMP12 Suppression in Lung Cancer: A Combined Bioinformatics and Molecular Approach” (International Journal of Molecular Sciences, 2025)
Where “and” joins values, the source holds several entries; their conditions need not be identical. Identical values can stand only once.

Legend:
H1299 cells [1] = assay: Annexin V-FITC/PI apoptosis assay (flow cytometry); conditions: H1299, double IC50, 72 h; for Necrosis (%) (Annexin−/PI+, Q1-UL): control 0.7; for Late Apoptosis (%) (Annexin+/PI+, Q1-UR): control 2.6; for Early Apoptosis (%) (Annexin+/PI−, Q1-LR): control 8.7; for Total Apoptosis (%): control 11.3
Description: (§6) Apoptosis was assessed using Annexin-V/PI staining, following the method described earlier with minor modifications [84]. […] After the treatment, the cells were collected and stained with Annexin-V-FITC and propidium iodide. The stained cells were then analyzed using a BD FACSCanto II flow cytometer (Becton, Dickinson and Company (BD), Franklin Lakes, NJ, USA) and FACSDiva software (Becton, Dickinson and Company (BD), Franklin Lakes, NJ, USA).

H1299 lung cancer cells = assay: MTT cell viability assay, H1299; assay type: cell-based, human
Description: (§1) To evaluate the impact of MMP12 inhibitors on lung cancer cell lines, an MTT assay was performed on A549, H1299, and H661 cells exposed to varying concentrations of inhibitors over 48, 72, and 96 h.
(§2) The lung cancer cell lines referenced as A549, H1299, and H661 were acquired from the American Type Culture Collection (ATCC, Manassas, VA, USA). Fibroblast cells of dermal origin were used as a model for normal human tissue, which were also purchased from ATCC. A549, H1299, and H661 cells were maintained in the RPMI culture medium, while fibroblast cells were maintained in the DMEM high glucose culture medium. Both RPMI and DMEM culture media were supplemented with 100 U/mL penicillin, 0.1 mg/mL streptomycin to prevent bacterial growth, 10% FBS to promote cell growth, and 2 mM L-glutamine as an energy source.
(§3) The 3-(4,5-dimethylthiazol-2-yl)-2,5-diphenyltetrazolium bromide (MTT) assay was employed to evaluate cell proliferation as previously noted. All experiments were performed in triplicate wells and were repeated at least twice independently. The percentage of the relative cell viability of treated cells versus the untreated cells (negative controls) was calculated using the following formula in Equation (1) (cell viability calculation):(1) Cell viability%=optical density of treated cells/optical density of untreated cells×100

A549 lung cancer cells = assay: MTT cell viability assay, A549; assay type: cell-based, human
Description: as §1, §2, §3

recombinant human MMP12 = biological target: T1, recombinant human MMP12 (Homo sapiens, UniProt P39900); assay: MMP12 colorimetric thiopeptide enzyme inhibition assay (Abcam); assay type: biochemical
T1 construct: purchased Abcam
Description: The enzyme inhibition potential of synthesized p-chlorocinnamic acid derivatives against MMP12 was assessed using the Abcam colorimetric assay.
The inhibitory activity of the newly synthesized compounds against MMP12 was assessed using a previously established enzymatic assay protocol, as described in our earlier study. In brief, we conducted a colorimetric thiopeptide-based inhibition assay for MMP12 using recombinant human MMP12 and the reference inhibitor NNGH as a positive control. The IC50 values were calculated using GraphPad Prism version 9 (GraphPad Software, San Diego, CA, USA).

H661 lung cancer cells = assay: MTT cell viability assay, H661; assay type: cell-based, human
Description: as §1, §2, §3

[2] = test system: MMP12 mRNA in H1299 cells; assay: qPCR gene expression, MMP12; assay type: cell-based, human; conditions: H1299, 0.1 IC50, 72 h
Description: (§4) Quantitative real-time PCR (qPCR) was used to assess the impact of MMP12 inhibition in H1299 lung cancer cells.
(§5) Quantitative real-time PCR (qPCR) was conducted as previously described. Lung cancer cell lines (A549, H1299, H661) were seeded at approximately 4 × 10^5 cells per T-25 flask and incubated for 24 h. […] Total RNA was extracted, reverse-transcribed into cDNA, and qPCR was performed using SYBR Green on an Applied Biosystems platform, Foster City, CA, USA. Gene expression was normalized to GAPDH, and the fold-change was calculated using the 2^−ΔΔCt method. The basal expression of MMP12 in untreated A549, H1299, and H661 cells was assessed using the 2^−ΔCt method. Primer sequences and annealing temperatures (Ta) are listed in Table S2 (Supplementary Materials).

[3] = test system: CCL15 mRNA in H1299 cells; assay: qPCR gene expression, CCL15; assay type: cell-based, human; conditions: H1299, 0.1 IC50, 72 h
Description: as §4, §5

H1299 cells [4] = conditions: human, 72 h
Description: as §6

H1299 cells [5] = assay: Wound healing migration assay; assay type: cell-based, human; conditions: for Wound closure %: untreated 99; for Wound migration rate (px/h): untreated 16,702
Description: The wound healing migration assay was conducted using H1299 cells, following an established protocol. […] Images were captured at 0 and 48 h, and wound closure was quantified using ImageJ. Digital images were analyzed for wound area using the ImageJ software version 1.53e.

[6] = test system: ADAM9 mRNA in H1299 cells; assay: qPCR gene expression, ADAM9; assay type: cell-based, human; conditions: H1299, 0.1 IC50, 72 h
Description: as §4, §5

[7] = test system: APOA1 mRNA in H1299 cells; assay: qPCR gene expression, APOA1; assay type: cell-based, human; conditions: H1299, 0.1 IC50, 72 h
Description: as §4, §5

H1299 cells [8] = assay: Soft agar colony formation assay (anchorage-independent growth); assay type: cell-based, human; conditions: for Colony count / Colony average size (px): H1299 soft agar; for Colony count: untreated 920; for Colony average size (px): untreated 746758
Description: Figures S12–S16 show a selection of images captured on day 15 at different magnifications: 4× and 20×.
The anchorage-independent colony formation assay was conducted using a previously described method with minor modifications. […] After 14 days of incubation, the colonies were imaged using the EVOS XL Core microscopeThermo Fisher Scientific, Waltham, MA, USA. and quantified.

[9] = test system: PSME3 mRNA in H1299 cells; assay: qPCR gene expression, PSME3; assay type: cell-based, human; conditions: H1299, 0.1 IC50, 72 h
Description: as §4, §5

H1299 cells [10] = assay: Cell cycle analysis (PI staining, flow cytometry); assay type: cell-based, human; conditions: H1299, ½ IC50, 48 h
Description: Cell cycle distribution was evaluated in H1299 cells using a modified version of the method described. […] After the treatment period, the cells were fixed with ethanol, stained with a propidium iodide/RNase A solution, and analyzed using a BD FACSCanto II flow cytometer. The data were processed with BD FACSDiva software version 8 (BD Biosciences, San Jose, CA, USA).

[11] = test system: MMP12 protein in H1299 cells; assay: Western blot of MMP12 protein expression; assay type: cell-based, human; conditions: for Normalized MMP-12 (to GAPDH), Western blot: untreated H1299 0.9696
Description: Western blotting was conducted to assess the protein expression of MMP12 in lung cancer cell lines (A549, H1299, and H661), following the protocol established earlier. In summary, cells were seeded and incubated for 24 h. […] Total protein lysates were prepared, separated by SDS-PAGE, and transferred to nitrocellulose membranes. These membranes were then probed with primary antibodies against MMP12 and GAPDH. The protein bands were visualized using an HRP substrate and analyzed for relative expression.

[12] = test system: SPARCL1 mRNA in H1299 cells; assay: qPCR gene expression, SPARCL1; assay type: cell-based, human; conditions: H1299, 0.1 IC50, 72 h
Description: as §4, §5

[13] = test system: NFKBIA mRNA in H1299 cells; assay: qPCR gene expression, NFKBIA; assay type: cell-based, human; conditions: H1299, 0.1 IC50, 72 h
Description: as §4, §5

CD44 mRNA in H1299 cells = assay: qPCR gene expression, CD44; assay type: cell-based, human; conditions: H1299, 0.1 IC50, 72 h
Description: as §4, §5

[14] = relative to untreated, GAPDH normalized
[15] = highest listed concentration (IC50)
[16] = lowest listed concentration (¼ IC50)
[17] = middle listed concentration (½ IC50)

T1 sequence (P39900 106-470): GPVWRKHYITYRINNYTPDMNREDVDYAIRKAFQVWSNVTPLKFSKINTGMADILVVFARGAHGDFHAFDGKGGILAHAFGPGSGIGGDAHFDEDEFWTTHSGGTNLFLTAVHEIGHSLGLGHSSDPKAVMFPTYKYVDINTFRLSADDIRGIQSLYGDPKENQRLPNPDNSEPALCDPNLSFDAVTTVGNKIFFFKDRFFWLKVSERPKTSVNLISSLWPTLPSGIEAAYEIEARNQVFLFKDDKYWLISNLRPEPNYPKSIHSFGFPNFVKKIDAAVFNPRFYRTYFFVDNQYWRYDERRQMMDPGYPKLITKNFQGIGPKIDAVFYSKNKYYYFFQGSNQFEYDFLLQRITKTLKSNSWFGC

SMILES: N.N.[Cl][Pt][Cl] [Cisplatin, reference compound]
- Necrosis (%) (Annexin−/PI+, Q1-UL) (H1299 cells [1]): 1.7%
- Late Apoptosis (%) (Annexin+/PI+, Q1-UR) (H1299 cells [1]): 11.6%
- Early Apoptosis (%) (Annexin+/PI−, Q1-LR) (H1299 cells [1]): 28.6%
- Total Apoptosis (%) (H1299 cells [1]): 40.2%

SMILES: Cc1ccc(NC(=O)/C=C/c2ccc(Cl)cc2)c(C(=O)c2ccccc2)c1 [Compound C4]
- IC50 (H1299 lung cancer cells; H1299, 48 h): 616 µM
- IC50 (H1299 lung cancer cells; H1299, 72 h): 302 µM
- IC50 (H1299 lung cancer cells; H1299, 96 h): 254 µM
- IC50 (A549 lung cancer cells; A549, 48 h): 963 µM
- IC50 (A549 lung cancer cells; A549, 72 h): 396 µM
- IC50 (A549 lung cancer cells; A549, 96 h): 168 µM
- MMP12 enzyme inhibition (recombinant human MMP12; at 50 µM): 23.3%
- IC50 (H661 lung cancer cells; H661, 48 h): 562 µM
- IC50 (H661 lung cancer cells; H661, 72 h): 319 µM
- IC50 (H661 lung cancer cells; H661, 96 h): 146 µM

SMILES: O=C(/C=C/c1ccc(Cl)cc1)Nc1ccc(C(=O)c2ccccc2)cc1 [Compound C1]
- MMP12 Fold Change (2^−ΔΔCt) [2, 14]: 0.78
- MMP12 % Change ([2]; vs untreated control): −22%
- CCL15 Fold Change (2^−ΔΔCt) [3, 14]: 0.03
- CCL15 % Change ([3]; vs untreated control): −97%
- Viable (%) (Annexin−/PI−, Q1-LL) (H1299 cells [4]): 78.6%
- IC50 (H1299 lung cancer cells; H1299, 72 h): 91 µM and 91.7 µM
- IC50 (H1299 lung cancer cells; Homo sapiens, NCI-H1299, 48 h, H1299, 48 h): 359 µM
- IC50 (H1299 lung cancer cells; Homo sapiens, NCI-H1299, 72 h, H1299, 72 h): 91.7 µM
- IC50 (H1299 lung cancer cells; Homo sapiens, NCI-H1299, 96 h, H1299, 96 h): 99.7 µM
- Wound closure % (H1299 cells [5]; H1299, 48 h, at IC50 concentration): 10%
- Wound closure % (H1299 cells [5]; H1299, 48 h, at ¼ IC50): 72%
- inhibition of wound closure (H1299 cells [5]; H1299, 48 h, at ½ IC50 (C1 45.9, C7 24.1, C9 21.7, C10 32.7, C15 72.6 µM)): ~50%
- Wound closure % (H1299 cells [5]; H1299, 48 h, at ½ IC50): 50%
- Wound migration rate (px/h) (H1299 cells [5]; H1299, at IC50 concentration): 1,640.73 px/h
- Wound migration rate (px/h) (H1299 cells [5]; H1299, at ¼ IC50): 11,751 px/h
- Wound migration rate (px/h) (H1299 cells [5]; H1299, at ½ IC50): 9,225 px/h
- ADAM9 Direction [6]: Up
- ADAM9 Fold Change (2^−ΔΔCt) [6, 14]: 123.60
- ADAM9 % Change ([6]; vs untreated control): +12,260%
- APOA1 Fold Change (2^−ΔΔCt) [7, 14]: 0.79
- APOA1 % Change ([7]; vs untreated control): −21%
- formation of cell colonies (number and size), in words (H1299 cells [8]; H1299, IC50, ½ IC50 or ¼ IC50, 72 h, vs untreated control): inhibited the formation of cell colonies
- Colony count (H1299 cells [8]; [15]): 292
- Colony average size (px) (H1299 cells [8]; [15]): 51655 px
- Colony count (H1299 cells [8]; [16]): 520
- Colony average size (px) (H1299 cells [8]; [16]): 262500 px
- Colony count (H1299 cells [8]; [17]): 408
- Colony average size (px) (H1299 cells [8]; [17]): 130041 px
- PSME3 Fold Change (2^−ΔΔCt) [9, 14]: 0.54
- PSME3 % Change ([9]; vs untreated control): −46%
- IC50 (A549 lung cancer cells; A549, 72 h): 118 µM
- IC50 (A549 lung cancer cells; Homo sapiens, A549, 48 h): 198 µM
- IC50 (A549 lung cancer cells; Homo sapiens, A549, 72 h): 119 µM
- IC50 (A549 lung cancer cells; Homo sapiens, A549, 96 h): 82 µM
- cells in G2/M phase (H1299 cells [10]): 9.1%
- cells in S phase (H1299 cells [10]): 36.5%
- cells in G0/G1 phase (H1299 cells [10]; untreated 62.5%): 47.4%
- MMP12 protein suppression (Western blot), in words ([11]; H1299, 0.1, ¼ and ½ IC50): less effective
- Normalized MMP-12 (to GAPDH), Western blot ([11]; H1299, 0.1 IC50, 72 h): 0.6296
- Normalized MMP-12 (to GAPDH), Western blot ([11]; H1299, ¼ IC50, 72 h): 0.3747
- Normalized MMP-12 (to GAPDH), Western blot ([11]; H1299, ½ IC50, 72 h): 0.1966
- inhibition at 50 µM (recombinant human MMP12): 32.9%
- SPARCL1 Fold Change (2^−ΔΔCt) [12, 14]: 0.49
- SPARCL1 % Change ([12]; vs untreated control): −51%
- NFKBIA Direction [13]: Up
- NFKBIA Fold Change (2^−ΔΔCt) [13, 14]: 24.33
- NFKBIA % Change ([13]; vs untreated control): +2333%
- Necrosis (%) (Annexin−/PI+, Q1-UL) (H1299 cells [1]): 1.9%
- Late Apoptosis (%) (Annexin+/PI+, Q1-UR) (H1299 cells [1]): 2.9%
- Early Apoptosis (%) (Annexin+/PI−, Q1-LR) (H1299 cells [1]): 16.6%
- Total Apoptosis (%) (H1299 cells [1]): 19.5%
- IC50 (H661 lung cancer cells; H661, 72 h): 34 µM
- IC50 (H661 lung cancer cells; Homo sapiens, NCI-H661, 48 h, H661, 48 h): 60.4 µM
- IC50 (H661 lung cancer cells; Homo sapiens, NCI-H661, 72 h, H661, 72 h): 33.9 µM
- IC50 (H661 lung cancer cells; Homo sapiens, NCI-H661, 96 h, H661, 96 h): 129 µM
- CD44 Fold Change (2^−ΔΔCt) (CD44 mRNA in H1299 cells; [14]): 0.48
- CD44 % Change (CD44 mRNA in H1299 cells; vs untreated control): −52%
